Reference: ChEMBL document CHEMBL6074711, “Design, Synthesis, and Activity Evaluation of C-23-Modified 5-O-Mycaminosyltylonolide Derivatives” (ACS Med Chem Lett, 2024)
Converted amounts (≈) assume the structure as drawn.

Key:
Assay type in all cases: functional
Escherichia coli [1] = experiment: Bactericidal activity against Escherichia coli ATCC25922 incubated for 20 to 24 hrs; settings: time 20-24 hrs
Enterococcus faecalis [2] = experiment: Antibacterial activity against Enterococcus faecalis ATCC29212 incubated for 20 to 24 hrs; settings: time 20-24 hrs
Escherichia coli [3] = experiment: Antibacterial activity against drug-resistant Escherichia coli clinical isolate 1322 incubated for 16 to 20 hrs by broth microdilution method; settings: time 16-20 hrs
[4] = system: Stenotrophomonas maltophilia; experiment: Bactericidal activity against Stenotrophomonas maltophilia ATCC17808 incubated for 20 to 24 hrs; settings: time 20-24 hrs
[5] = system: Stenotrophomonas maltophilia; experiment: Ratio of MBC to MIC for Stenotrophomonas maltophilia ATCC17808 incubated for 20 to 24 hrs; settings: time 20-24 hrs
[6] = system: Stenotrophomonas maltophilia; experiment: Antibacterial activity against Stenotrophomonas maltophilia ATCC17808 incubated for 16 to 20 hrs by broth microdilution method; settings: time 16-20 hrs
Enterococcus faecalis [7] = experiment: Antibacterial activity against Enterococcus faecalis ATCC29212 incubated for 16 to 20 hrs by broth microdilution method; settings: time 16-20 hrs
Escherichia coli [8] = experiment: Antibacterial activity against drug-resistant Escherichia coli clinical isolate 1333 incubated for 16 to 20 hrs by broth microdilution method; settings: time 16-20 hrs
Enterococcus faecalis [9] = experiment: Bactericidal activity against Enterococcus faecalis ATCC29212 incubated for 20 to 24 hrs; settings: time 20-24 hrs
[10] = system: Stenotrophomonas maltophilia; experiment: Antibacterial activity against Stenotrophomonas maltophilia ATCC17808 incubated for 20 to 24 hrs; settings: time 20-24 hrs
Staphylococcus aureus [11] = experiment: Antibacterial activity against drug-resistant Staphylococcus aureus clinical isolate M20 incubated for 16 to 20 hrs by broth microdilution method; settings: time 16-20 hrs
Staphylococcus aureus [12] = experiment: Bactericidal activity against Staphylococcus aureus ATCC25923 incubated for 20 to 24 hrs; settings: time 20-24 hrs
Escherichia coli [13] = experiment: Antibacterial activity against Escherichia coli ATCC25922 incubated for 16 to 20 hrs by broth microdilution method; settings: time 16-20 hrs
Staphylococcus aureus [14] = experiment: Antibacterial activity against Staphylococcus aureus ATCC25923 incubated for 16 to 20 hrs by broth microdilution method; settings: time 16-20 hrs
Enterococcus faecalis [15] = experiment: Ratio of MBC to MIC for Enterococcus faecalis ATCC29212 incubated for 20 to 24 hrs; settings: time 20-24 hrs
Escherichia coli [16] = experiment: Antibacterial activity against Escherichia coli ATCC25922 incubated for 20 to 24 hrs; settings: time 20-24 hrs
Staphylococcus aureus [17] = experiment: Antibacterial activity against Staphylococcus aureus ATCC25923 incubated for 20 to 24 hrs; settings: time 20-24 hrs
Escherichia coli [18] = experiment: Ratio of MBC to MIC for Escherichia coli ATCC25922 incubated for 20 to 24 hrs; settings: time 20-24 hrs

Row | SMILES | MIC [6] [µg/mL] | MIC (Enterococcus faecalis [7]) [µg/mL] | MIC (Escherichia coli [13]) [µg/mL] | MIC (Staphylococcus aureus [14]) [µg/mL] | further results
1 | CC[C@H]1OC(=O)C[C@@H](O)[C@H](C)[C@@H](O[C@@H]2O[C@H](C)[C@@H](O)[C@H](N(C)C)[C@H]2O)[C@@H](CCN(C)Cc2cn(-c3cnc4ccccc4c3)nn2)C[C@@H](C)C(=O)/C=C/C(C)=C/[C@@H]1CN(C)Cc1ccccc1 | 1 (≈ 1.08 µM) | 1 (≈ 1.08 µM) | 1 (≈ 1.08 µM) | 0.5 (≈ 0.541 µM) | MBC (Escherichia coli [1]): 4 µg/mL (≈ 4.33 µM); MIC (Enterococcus faecalis [2]): 4 µg/mL (≈ 4.33 µM); MIC (Escherichia coli [3]): 1 µg/mL (≈ 1.08 µM); MBC [4]: 16 µg/mL (≈ 17.3 µM); Ratio [5]: 4; MIC (Escherichia coli [8]): 2 µg/mL (≈ 2.16 µM); MBC (Enterococcus faecalis [9]): 8 µg/mL (≈ 8.66 µM); MIC [10]: 4 µg/mL (≈ 4.33 µM); MIC (Staphylococcus aureus [11]): 0.5 µg/mL (≈ 0.541 µM); MBC (Staphylococcus aureus [12]): > 32 µg/mL; Ratio (Enterococcus faecalis [15]): 2; MIC (Escherichia coli [16]): 1 µg/mL (≈ 1.08 µM); MIC (Staphylococcus aureus [17]): 16 µg/mL (≈ 17.3 µM); Ratio (Escherichia coli [18]): 4
2 | CC[C@H]1OC(=O)C[C@@H](O)[C@H](C)[C@@H](O[C@@H]2O[C@H](C)[C@@H](O)[C@H](N(C)C)[C@H]2O)[C@@H](CC=O)C[C@@H](C)C(=O)/C=C/C(C)=C/[C@@H]1CO | > 32 | 0.5 (≈ 0.836 µM) | > 32 | 0.5 (≈ 0.836 µM) | MIC (Escherichia coli [3]): > 32 µg/mL; MIC (Escherichia coli [8]): > 32 µg/mL; MIC (Staphylococcus aureus [11]): 1 µg/mL (≈ 1.67 µM)
3 | CC[C@H]1OC(=O)C[C@@H](O)[C@H](C)[C@@H](O[C@@H]2O[C@H](C)[C@@H](O)[C@H](N(C)C)[C@H]2O)[C@@H](CCNCc2cn(-c3cnc4ccccc4c3)nn2)C[C@@H](C)C(=O)/C=C/C(C)=C/[C@@H]1CNCc1ccc(Br)cc1 | 2 (≈ 2.05 µM) | 2 (≈ 2.05 µM) | 2 (≈ 2.05 µM) | 1 (≈ 1.03 µM) | –
4 | CC[C@H]1OC(=O)C[C@@H](O)[C@H](C)[C@@H](O[C@@H]2O[C@H](C)[C@@H](O)[C@H](N(C)C)[C@H]2O)[C@@H](CCN(C)Cc2cn(-c3cnc4ccccc4c3)nn2)C[C@@H](C)C(=O)/C=C/C(C)=C/[C@@H]1CN(Cc1ccccc1)C(C)C | 8 (≈ 8.4 µM) | 16 (≈ 16.8 µM) | 16 (≈ 16.8 µM) | 8 (≈ 8.4 µM) | –
5 | CC[C@H]1OC(=O)C[C@@H](O)[C@H](C)[C@@H](O[C@@H]2O[C@H](C)[C@@H](O)[C@H](N(C)C)[C@H]2O)[C@@H](CCN(C)Cc2cn(-c3cnc4ccccc4c3)nn2)C[C@@H](C)C(=O)/C=C/C(C)=C/[C@@H]1CNCc1ccc(C)cc1 | 2 (≈ 2.16 µM) | 4 (≈ 4.33 µM) | 2 (≈ 2.16 µM) | 1 (≈ 1.08 µM) | –
6 | CC[C@H]1OC(=O)C[C@@H](O)[C@H](C)[C@@H](O[C@@H]2O[C@H](C)[C@@H](O)[C@H](N(C)C)[C@H]2O)[C@@H](CCN(C)Cc2cn(-c3cnc4ccccc4c3)nn2)C[C@@H](C)C(=O)/C=C/C(C)=C/[C@@H]1CNc1ccc(I)cc1 | 4 (≈ 3.91 µM) | 8 (≈ 7.83 µM) | 4 (≈ 3.91 µM) | 2 (≈ 1.96 µM) | –
7 | CC[C@H]1OC(=O)C[C@@H](O)[C@H](C)[C@@H](O[C@@H]2O[C@H](C)[C@@H](O)[C@H](N(C)C)[C@H]2O)[C@@H](CCN(C)Cc2cn(-c3cnc4ccccc4c3)nn2)C[C@@H](C)C(=O)/C=C/C(C)=C/[C@@H]1CNc1ccc(C)cc1 | 4 (≈ 4.39 µM) | 8 (≈ 8.79 µM) | 4 (≈ 4.39 µM) | 4 (≈ 4.39 µM) | –
8 | CC[C@H]1OC(=O)C[C@@H](O)[C@H](C)[C@@H](O[C@@H]2O[C@H](C)[C@@H](O)[C@H](N(C)C)[C@H]2O)[C@@H](CCNCc2cn(-c3cnc4ccccc4c3)nn2)C[C@@H](C)C(=O)/C=C/C(C)=C/[C@@H]1CN(C)Cc1ccccc1 | 2 (≈ 2.2 µM) | 2 (≈ 2.2 µM) | 2 (≈ 2.2 µM) | 0.5 (≈ 0.549 µM) | –
9 | CC[C@H]1OC(=O)C[C@@H](O)[C@H](C)[C@@H](O[C@@H]2O[C@H](C)[C@@H](O)[C@H](N(C)C)[C@H]2O)[C@@H](CCN(C)Cc2cn(-c3cnc4ccccc4c3)nn2)C[C@@H](C)C(=O)/C=C/C(C)=C/[C@@H]1CNCc1ccc(Br)cc1 | 8 (≈ 8.09 µM) | 8 (≈ 8.09 µM) | 8 (≈ 8.09 µM) | 4 (≈ 4.04 µM) | –
10 | CC[C@H]1OC(=O)C[C@@H](O)[C@H](C)[C@@H](O[C@@H]2O[C@H](C)[C@@H](O)[C@H](N(C)C)[C@H]2O)[C@@H](CCN(C)Cc2cn(-c3cnc4ccccc4c3)nn2)C[C@@H](C)C(=O)/C=C/C(C)=C/[C@@H]1CNc1ccc(Br)cc1 | 4 (≈ 4.1 µM) | 4 (≈ 4.1 µM) | 4 (≈ 4.1 µM) | 2 (≈ 2.05 µM) | –
